# Results: ChEMBL document CHEMBL1212812, “Multi-target spectral moment QSAR versus ANN for antiparasitic drugs against different parasite species” (Bioorg Med Chem, 2010)
# Test system: Plasmodium falciparum
# Test: Antimicrobial activity against Plasmodium falciparum
# Format: functional, organism-based
row,Compound,IC50 [µM]
1,O=C1Nc2ccccc2/C1=C/C(=O)c1ccccc1,4
2,Cn1c2nc3ccccc3c-2cc2c(Br)cccc21,32
3,C=C[C@@H]1CN2CC[C@@]3(CNc4c3ccc(O)c4[C@H]3CCCN3C)[C@@H]2C[C@@H]1C[C@H]1c2[nH]c3ccccc3c2CCN1C [STRYCHNOPHYLLINE],3
4,NC1=NC(c2cccc(Oc3ccc(Cl)cc3)c2)N(c2ccc(Cl)cc2)C(N)=N1 (stereo unspecified),4
5,CC1=C(O)SC(C)C1=O (stereo unspecified) [THIOLACTONE],471
6,NC(=O)NO [HYDROXYUREA],792
7,CN(C)/C=N\C(=O)C1C2c3ccccc3C(c3ccccc32)C1C(=O)/N=C\N(C)C (stereo unspecified),34
8,Nc1ncc(Cc2ccc(OCc3ccccc3)c(OCc3ccccc3)c2)c(N)n1,3
9,CC1(C)Oc2c(c3nc4ccccc4nc3c3ccccc23)CC1S(=O)(=O)O (stereo unspecified),6
10,CC(CCCN)Nc1ccnc2cc(Cl)ccc12 (stereo unspecified) [BIDESETHYL CHLOROQUINE],134
11,CCCCCCCCCCO[C@@H]1O[C@H](CO)[C@@H](O)[C@H](O)[C@H]1O,233
12,COc1cc(NC(C)CCCN)c2nccc(C)c2c1OCc1ccc(C(F)(F)F)cc1 (stereo unspecified),3
13,CCN(CC)Cc1cc(Nc2ccnc3cc(Cl)ccc23)cc(-c2ccc(Cl)cc2)c1 [DEHYDROXY TEBAQUINE],51
14,COc1cc(NC(C)CCCN)c2nccc(C)c2c1OCCCCCc1cccs1 (stereo unspecified),3
15,CC(=O)NO [ACETOHYDROXAMIC ACID],1030
16,CCCCCC(O)(P(=O)(O)O)P(=O)(O)O,6
17,O=C1NC(=O)/C(=C2/C(=O)Nc3ccccc32)S1,19
18,COc1cc(Cc2c(C)nc(N)nc2N)cc(OC)c1OC,23
19,COc1ccc2[nH]c([S+]([O-])Cc3ncc(C)c(OC)c3C)nc2c1 (stereo unspecified) [OMEPRAZOLE],76
20,CCc1nc(N)nc(N)c1Cc1cc(OC)c(OC)c(OC)c1,50
21,CCN(CC)CCCC(C)Nc1ccncc1 (stereo unspecified),92
22,C=C[C@H]1CN2CC[C@H]1C[C@H]2[C@H](O)c1ccnc2ccccc12 [CINCHONIDINE],27
23,Cc1c(O)noc1-c1ccccc1,29

row,Compound,IC50 [µM]
1,CN(C)c1ccc(Nc2c3ccccc3nc3ccccc23)cc1,1
2,COc1cc(NC(C)CCCN)c2nccc(C)c2c1OCCCCc1ccccc1 (stereo unspecified),174
3,CCNCc1cc(Nc2ccnc3cc(Cl)ccc23)ccc1O [DESETHYL AMODIAQUINE],73
4,CCCCN(CC)C(P(=O)(O)O)P(=O)(O)O [(BUTYL(ETHYL)AMINO)METHYLENEDIPHOSPHONIC ACID],200
5,CC(=O)C(N)c1cc(O)c(O)c(O)c1 (stereo unspecified),301
6,Cc1nc(N)nc(N)c1Cc1ccc(OCc2ccccc2)c(OCc2ccccc2)c1,3
7,C=C[C@H]1CN2CCc3c([nH]c4ccc(O)cc34)[C@@H]2C[C@@H]1C[C@H]1c2[nH]c3ccccc3c2CCN1C,2
8,NS(=O)(=O)c1ccc(Nc2c3ccc(Cl)cc3nc3cc(Cl)ccc23)cc1,7
9,CCNCCCC(C)Nc1ccnc2cc(Cl)ccc12 (stereo unspecified) [DESETHYLCHLOROQUINE],3
10,OC(c1cc(C(F)(F)F)nc2c(C(F)(F)F)cccc12)C1CCCCN1 (stereo unspecified) [MEFLOQUINE],5
11,CCN(CC)Cc1cc(Nc2ccnc3cc(Cl)ccc23)cc(-c2ccc(Cl)cc2)c1F,41
12,CCCCCCCCCCC(O)(P(=O)(O)O)P(=O)(O)O,200
13,CC[C@H]1OC(=O)[C@H](C)[C@@H](O[C@H]2C[C@@](C)(OC)[C@@H](O)[C@H](C)O2)[C@H](C)[C@@H](O[C@@H]2O[C@H](C)C[C@H](N(C)C)[C@H]2O)[C@](C)(O)C[C@@H](C)C(=O)[C@H](C)[C@@H](O)[C@]1(C)O [ERYTHROMYCIN],18
14,CCCCCCOc1c(OC)cc(NC(C)CCCN)c2nc(OC)c(C)cc12 (stereo unspecified),38
15,Cn1cnc2c(NCc3ccccc3)nc(NCCO)nc21 [OLOMOUCINE],3
16,CCOC(=O)C1C2c3ccccc3C(c3ccccc32)C1C(=O)N(C)C (stereo unspecified),33
17,CC1=C(O)[C@@](C)(Cc2cccc(C(=O)c3ccccc3)c2)SC1=O [THIOLACTOMYCIN 8],16
18,CC(C)=CCC/C(C)=C/CC/C(C)=C/C[C@@]1(C)SC(=O)C(C)=C1O [THIOLACTOMYCIN 7],8
19,C=C[C@H]1CN2CC[C@H]1C[C@H]2[C@H](O)c1ccnc2ccc(OC)cc12 [QUININE],54
20,C/N=C/c1c(O)[nH]c2ccccc12,57
21,O=C1NC(=S)S/C1=C1\C(=O)Nc2ccccc21,17
22,CCn1cc(C(=O)O)c(=O)c2cc(F)c(N3CCNCC3)cc21 [NORFLOXACIN],75
23,O=P(O)(O)C(NC1CC1)P(=O)(O)O [(CYCLOPROPYLAMINO)METHYLENEDIPHOSPHONIC ACID],200

row,Compound,IC50 [µM]
1,CC1C2c3ccccc3C(c3ccccc32)C1C(=O)Nc1ccncc1 (stereo unspecified),500
2,CC1(C)N=C(N)N=C(N)N1c1ccc(Cl)cc1 [CYCLOGUANIL],3
3,CC1C2c3ccccc3C(c3ccccc32)C1C(N)=O (stereo unspecified),32
4,COc1cc(NC(C)CCCN)c2nccc(C)c2c1OCCCCCc1ccccc1C(F)(F)F (stereo unspecified),5
5,CC1C2c3ccccc3C(c3ccccc32)C1C(=O)Nc1cccnc1 (stereo unspecified),79
6,COc1cc(NC(C)CCCN)c2ncccc2c1 (stereo unspecified) [PRIMAQUINE],105
7,CC(C)(C)NCc1cc(Nc2ccnc3cc(Cl)ccc23)cc(-c2ccc(Cl)cc2)c1O [TEBUQUINE],53
8,Nc1ncc(Cc2ccc(OCc3ccccc3)cc2)c(N)n1,21
9,CCCCCCOc1c(OC)cc(NC(C)CCCN)c2nccc(C)c12 (stereo unspecified) [WR-242511],8
10,NC1=NC(c2ccc(Oc3ccccc3)cc2)N(c2cccc(Cl)c2)C(N)=N1 (stereo unspecified),3
11,CC(=O)C1C(=O)Nc2ccccc21 (stereo unspecified),29
12,O=P(O)(O)C(NC1CCCCC1)P(=O)(O)O [(CYCLOHEXYLAMINO)METHYLENEDIPHOSPHONIC ACID],200
13,C=C[C@H]1CN2CC[C@H]1C[C@@H]2[C@@H](O)c1ccnc2ccc(OC)cc12 [QUINIDINE],24
14,CN(C)Cc1ccc(Nc2c3ccc(Cl)cc3nc3cc(Cl)ccc23)cc1,1
15,CN(C)CCCC1(c2ccc(F)cc2)OCc2cc(C#N)ccc21 (stereo unspecified) [CITALOPRAM],222
16,C/C=C1/C[n+]2ccc3c([nH]c4ccccc43)c2C[C@@H]1C1=CN2c3ccccc3[C@]34CCN5C/C(=C/C)[C@H](C[C@H]53)[C@@H]([C@@H]1O)[C@H]24 [TETRADEHYDROLONGICAUDATINE],1
17,CCN(CC)Cc1cc(Nc2ccncc2)ccc1O,134
18,CNc1ccc(Nc2c3ccccc3nc3cc(Cl)ccc23)cc1,1
19,CCCCCCC(CCCC)C(O)(P(=O)(O)O)P(=O)(O)O (stereo unspecified),200
20,Nc1ncc(Cc2cccc(OCc3ccccc3)c2)c(N)n1,3
21,C=C/C(C)=C/[C@@]1(C)SC(=O)C(C)=C1O [THIOLACTOMYCIN],49
22,CCOC(=O)/C(C#N)=C1/C(=O)Nc2ccccc21,42
23,COc1ccc(Nc2c3ccc(N)cc3nc3cc(N)ccc23)cc1,1

row,Compound,IC50 [µM]
1,CCN(CC)CCCC(C)Nc1c2ccc(Cl)cc2nc2ccc(OC)cc12 (stereo unspecified) [QUINACRINE],41
2,CCc1nc(N)nc(N)c1-c1ccc(Cl)cc1 [PYRIMETHAMINE],100
3,N/C(=N\O)c1cc(O)cc(O)c1,589
4,Nc1ccc(S(=O)(=O)c2ccc(N)cc2)cc1 [DAPSONE],18
5,CCCCCCCCCC[N+](C)(C)CCCS(=O)(=O)[O-],782
6,O=P(O)(O)C(NCCCc1ccccc1)P(=O)(O)O,200
7,O=C1Nc2ccccc2/C1=C/C(=O)c1ccc(Br)cc1,4
8,CC1SC(=O)C(C)(C)C1=O (stereo unspecified) [THIOLACTOMYCIN 10],46
9,COc1ccc2nc3cc(Cl)ccc3c(Nc3cc(CN4CCCC4)c(O)c(CN4CCCC4)c3)c2n1 [PYRONARIDINE],64
10,COCCCOc1ccnc(C[S+]([O-])c2nc3ccccc3[nH]2)c1C (stereo unspecified) [RABEPRAZOLE],7
11,O=C(O)C1C2c3ccccc3C(c3ccccc32)C1CBr (stereo unspecified),40
12,O=C(NO)c1ccccc1 [BENZOHYDROXAMATE],17
13,CCCCN(CCCC)CCC(O)c1cc2c(Cl)cc(Cl)cc2c2cc(C(F)(F)F)ccc12 (stereo unspecified) [HALOFANTRINE],185
14,Nc1nc(N)c(-c2cccc(Cl)c2)c(CCCOC(=O)OCc2ccccc2)n1,2
15,O=C1Nc2ccccc2/C1=C/C(=O)c1ccc(F)cc1,1
16,Oc1ccc(Nc2ccnc3cc(Cl)ccc23)cc1CN1CCCC1 [AMOPYROQUINE],30
17,O=P(O)(O)C(Nc1ccc(I)cn1)P(=O)(O)O,200
18,C[C@H]1[C@@H](O)O[C@@H]2O[C@@]3(C)CC[C@H]4[C@H](C)CC[C@@H]1[C@@]24OO3 [ARTENIMOL],1000
19,CC(C)=CCC/C(C)=C/CC1(C)C(=O)S[C@@H](C)C1=O (stereo partly specified) [THIOLACTOMYCIN 11],30
20,CC[C@H]1CN2CCc3c([nH]c4cc(O)ccc34)[C@@H]2C[C@@H]1C[C@H]1c2[nH]c3ccccc3c2CCN1C,5
21,O=C1Nc2ccccc2/C1=C\c1c(Cl)cccc1Cl,17
22,CC1C2c3ccccc3C(c3ccccc32)C1CN(C)C (stereo unspecified),21
